Counter-ions that a name gives are not always drawn. Like-named read-outs stand apart in the source and are kept apart here. Where a SMILES comes first, the peptide text is derived from it. [ ]: non-standard residue; d: D form. The star is where a group is joined. Dolaproine = CO[C@@H]([C@@H]1CCCN1)[C@@H](C)C(=O)O; Dil = CC[C@H](C)[C@H](NC)[C@@H](CC(=O)O)OC; NMe2Val = CC(C)[C@@H](C(=O)*)N(C)C
Columns and labels:
[1] = biological target: T1, SARS-CoV-2 PLpro (nsp3 1564–1878) (Severe acute respiratory syndrome coronavirus 2, UniProt P0DTD1); assay: biochemical; set-up: FRET-quenched peptide (Pro3) cleavage by PLpro, 10 min pre-incubation, slope over 20 min, normalised to no-compound control; settings: read-out: % of control remaining
[2] = biological target: T1, SARS-CoV-2 PLpro (nsp3 1564–1878); assay: biochemical; set-up: FRET-quenched peptide (Pro3) cleavage by PLpro, 10 min pre-incubation, slope over 20 min, normalised to no-compound control; settings: read-out: % of control remaining; remark: listed apart in the source

`[N-]=[N+]=N[C@@H]1[C@H](O)[C@@H](n2ccc(=O)[nH]c2=O)O[C@H]1CO` [3'-Azido-3'-deoxy-beta-L-uridine] gave a remaining activity at 3.75 µM ([1]; Well no.=7758, high concentration screen) of 102% and a remaining activity at 1.25 µM ([2]; Well no.=7758, low concentration screen) of 97.9%.

With `COc1ccc2cc([C@H](C)C(=O)O)ccc2c1` [Naproxen] the remaining activity at 3.75 µM ([1]; Well no.=1869, high concentration screen) was 87.1% and the remaining activity at 1.25 µM ([2]; Well no.=1869, low concentration screen) was 90.4%.

Work on `C[Se]CC[C@H](N)C(=O)O` [L-SelenoMethionine] yielded a remaining activity at 3.75 µM ([1]; Well no.=6681, high concentration screen) of 103% and a remaining activity at 1.25 µM ([2]; Well no.=6681, low concentration screen) of 106%.

`CCCc1nc2c(C)cc(-c3nc4ccccc4n3C)cc2n1Cc1ccc(-c2ccccc2C(=O)O)cc1` [Telmisartan] was tested, and the remaining activity at 3.75 µM ([1]; Well no.=2297, high concentration screen) was 94.3%, the remaining activity at 3.75 µM ([1]; Well no.=6283, high concentration screen) was 108% and the remaining activity at 1.25 µM ([2]; Well no.=2297, low concentration screen) was 95.4%. For the same molecule, the remaining activity at 1.25 µM ([2]; Well no.=6283, low concentration screen) was 105%.

Molecule `COc1ccc(Nc2nc(N)nc(CN3CCCCC3)n2)cc1` [BRD32048] has a remaining activity at 3.75 µM ([1]; Well no.=5572, high concentration screen) of 98.9% and a remaining activity at 1.25 µM ([2]; Well no.=5572, low concentration screen) of 91.7%.

Work on `C[C@H](Cc1ccc2c(c1)OC(C(=O)O)(C(=O)O)O2)NC[C@H](O)c1cccc(Cl)c1` [CL 316,243] yielded a remaining activity at 3.75 µM ([1]; Well no.=276, high concentration screen) of 101% and a remaining activity at 1.25 µM ([2]; Well no.=276, low concentration screen) of 96.9%.

For `O=C1C(O)=C([C@H]2CC[C@H](c3ccc(Cl)cc3)CC2)C(=O)c2ccccc21` [Atovaquone], the remaining activity at 3.75 µM ([1]; Well no.=1838, high concentration screen) was 94.9% and the remaining activity at 1.25 µM ([2]; Well no.=1838, low concentration screen) was 92.3%.

With `CCOC(=O)c1ncn2c1CN(C)C(=O)c1cc(F)ccc1-2` [Flumazenil] the remaining activity at 3.75 µM ([1]; Well no.=517, high concentration screen) was 106%, the remaining activity at 3.75 µM ([1]; Well no.=1575, high concentration screen) was 102% and the remaining activity at 1.25 µM ([2]; Well no.=517, low concentration screen) was 104%. For the same molecule, the remaining activity at 1.25 µM ([2]; Well no.=1575, low concentration screen) was 103%.

Molecule `O=C(O)C(O)c1cccc(O)c1` (centres unmarked) [3-Hydroxymandelic Acid] has a remaining activity at 3.75 µM ([1]; Well no.=6879, high concentration screen) of 98.2% and a remaining activity at 1.25 µM ([2]; Well no.=6879, low concentration screen) of 100%.

`CSCC[C@H](NC(=O)[C@H](Cc1ccccc1)NC(=O)CNC(=O)CNC(=O)[C@@H](N)Cc1ccc(O)cc1)C(=O)O` [Tyr-Gly-Gly-Phe-Met-OH] showed a remaining activity at 3.75 µM [1] of 101% and a remaining activity at 1.25 µM [2] of 98.2%.

`O=C1NC(=O)c2c1c1c3ccccc3n3c1c1c2c2ccccc2n1[C@H]1CC[C@@H]3O1` [SB 218078] gave a remaining activity at 3.75 µM ([1]; Well no.=2648, high concentration screen) of 94.3% and a remaining activity at 1.25 µM ([2]; Well no.=2648, low concentration screen) of 92.1%.

With `Nc1nc(SCc2ccc([N+](=O)[O-])cc2)c2ncn([C@@H]3O[C@H](CO)[C@@H](O)[C@H]3O)c2n1` [S-(4-Nitrobenzyl)-6-thioguanosine] the remaining activity at 3.75 µM ([1]; Well no.=53, high concentration screen) was 102% and the remaining activity at 1.25 µM ([2]; Well no.=53, low concentration screen) was 101%.

Work on `COc1cc2c(cc1OC)-c1c/c(=N\c3c(C)cc(C)cc3C)n(C)c(=O)n1CC2` [Trequinsin hydrochloride] yielded a remaining activity at 3.75 µM ([1]; Well no.=1379, high concentration screen) of 97.1% and a remaining activity at 1.25 µM ([2]; Well no.=1379, low concentration screen) of 98.6%.

With `CC(C)C[C@H](NC(=O)[C@H](CC(C)C)NC(=O)[C@H](Cc1ccccc1)NC(=O)[C@@H](N)CO)C(=O)N[C@@H](CCCN=C(N)N)C(=O)N[C@@H](CC(N)=O)C(=O)O` [TRAP-6] the remaining activity at 3.75 µM ([1]; Well no.=6278, high concentration screen) was 103%, the remaining activity at 3.75 µM ([1]; Well no.=8364, high concentration screen) was 97.2% and the remaining activity at 1.25 µM ([2]; Well no.=6278, low concentration screen) was 101%. For the same molecule, the remaining activity at 1.25 µM ([2]; Well no.=8364, low concentration screen) was 98.5%.

`O=C(O)C=Cc1ccc(O)cc1` [p-Hydroxycinnamic acid] showed a remaining activity at 3.75 µM ([1]; Well no.=7161, high concentration screen) of 103% and a remaining activity at 1.25 µM ([2]; Well no.=7161, low concentration screen) of 105%.

For `CC1=C(/C=C/C(C)=C/C=C/C(C)=C/C=C/C=C(C)/C=C/C=C(C)/C=C/C2=C(C)C(=O)[C@@H](O)CC2(C)C)C(C)(C)C[C@H](O)C1=O` [Astaxanthin], the remaining activity at 3.75 µM ([1]; Well no.=296, high concentration screen) was 92.4% and the remaining activity at 1.25 µM ([2]; Well no.=296, low concentration screen) was 93.3%.

`NCCc1c[nH]cn1` [Histamine (phosphate)] gave a remaining activity at 3.75 µM ([1]; Well no.=6717, high concentration screen) of 91.6% and a remaining activity at 1.25 µM ([2]; Well no.=6717, low concentration screen) of 95.8%.

Molecule `NCCCCC(=O)O` [5-Aminovaleric acid hydrochloride] has a remaining activity at 3.75 µM ([1]; Well no.=147, high concentration screen) of 101% and a remaining activity at 1.25 µM ([2]; Well no.=147, low concentration screen) of 103%.

`CC(=O)Nc1cccc2c1c(Sc1ccc(Cl)cc1)c(C)n2CC(=O)O` [AZD1981] was tested, and the remaining activity at 3.75 µM ([1]; Well no.=7131, high concentration screen) was 95.7% and the remaining activity at 1.25 µM ([2]; Well no.=7131, low concentration screen) was 98.7%.

Work on `Cc1c(Cn2c(C)nc3c(C(=O)O)cc(N4CCOCC4)cc32)cccc1C(F)(F)F` [GSK2636771] yielded a remaining activity at 3.75 µM ([1]; Well no.=5178, high concentration screen) of 96.9% and a remaining activity at 1.25 µM ([2]; Well no.=5178, low concentration screen) of 93.1%.

`Oc1cccc(-c2nc(N3CCOCC3)c3oc4ncccc4c3n2)c1` [PI-103] gave a remaining activity at 3.75 µM ([1]; Well no.=2367, high concentration screen) of 100% and a remaining activity at 1.25 µM ([2]; Well no.=2367, low concentration screen) of 100%.

In the case of `O=c1ccc2cc3ccoc3cc2o1` [7H-furo[3,2-g]chromen-7-one], the remaining activity at 3.75 µM ([1]; Well no.=5431, high concentration screen) is reported as 104% and the remaining activity at 1.25 µM ([2]; Well no.=5431, low concentration screen) is reported as 101%.

`Cn1c(=O)c2c(ncn2CC2OCCO2)n(C)c1=O` [Doxofylline] gave a remaining activity at 3.75 µM ([1]; Well no.=2020, high concentration screen) of 99.1%, a remaining activity at 3.75 µM ([1]; Well no.=8323, high concentration screen) of 94.2% and a remaining activity at 1.25 µM ([2]; Well no.=2020, low concentration screen) of 100%. The remaining activity at 1.25 µM ([2]; Well no.=8323, low concentration screen) was 99.7%.

In the case of `CC[C@H](C)[C@@H]([C@@H](CC(=O)N1CCC[C@H]1[C@H](OC)[C@@H](C)C(=O)N[C@@H](Cc1ccccc1)C(=O)O)OC)N(C)C(=O)[C@@H](NC(=O)[C@H](C(C)C)N(C)C)C(C)C` [Auristatin F] (NMe2Val-V[Dil][Dolaproine]F-OH), the remaining activity at 3.75 µM ([1]; Well no.=8602, high concentration screen) is reported as 100% and the remaining activity at 1.25 µM ([2]; Well no.=8602, low concentration screen) is reported as 106%.

`CC/C(=C(\c1ccccc1)c1ccc(OCCN(C)C)cc1)c1ccccc1` [Tamoxifen] showed a remaining activity at 3.75 µM ([1]; Well no.=2240, high concentration screen) of 93.3% and a remaining activity at 1.25 µM ([2]; Well no.=2240, low concentration screen) of 90.7%.

Molecule `Cc1[nH]c2ccccc2c1CCNC(=O)c1cccs1` [CK-636] has a remaining activity at 3.75 µM ([1]; Well no.=5636, high concentration screen) of 100% and a remaining activity at 1.25 µM ([2]; Well no.=5636, low concentration screen) of 102%.

With `C=C1/C(=C\C=C2/CCC[C@]3(C)[C@@H]([C@H](C)/C=C/[C@@H](O)C4CC4)CC[C@@H]23)C[C@@H](O)C[C@@H]1O` [Calcipotriene] the remaining activity at 3.75 µM ([1]; Well no.=1760, high concentration screen) was 96.3% and the remaining activity at 1.25 µM ([2]; Well no.=1760, low concentration screen) was 96.1%.

With `C/C(=C/C=C/[C@@H](C)C(=O)O)[C@H]1CN[C@H](C(=O)O)[C@H]1CC(=O)O` [Domoic acid] the remaining activity at 3.75 µM [1] was 102% and the remaining activity at 1.25 µM [2] was 99.4%.

`C[C@H](NC(=O)CC=C1NC(=O)c2ccccc2N1)c1ccccc1` [(S)-3-(4-oxo-3,4-dihydroquinazolin-2(1H)-ylidene)-N-(1-phenylethyl)propanamide] was tested, and the remaining activity at 3.75 µM ([1]; Well no.=6083, high concentration screen) was 95.2% and the remaining activity at 1.25 µM ([2]; Well no.=6083, low concentration screen) was 95.2%.

In the case of `O=C(O)CN(CCN(CC(=O)O)CC(=O)O)CCN(CC(=O)O)CC(=O)O` [Diethylenetriaminepentaacetic acid], the remaining activity at 3.75 µM ([1]; Well no.=532, high concentration screen) is reported as 97.9% and the remaining activity at 1.25 µM ([2]; Well no.=532, low concentration screen) is reported as 100%.

`C[C@]12CCC(=O)C=C1CC[C@@H]1[C@@H]2CC[C@@]2(C)[C@H]1CC[C@]2(O)C(=O)CO` [Cortodoxone] showed a remaining activity at 3.75 µM ([1]; Well no.=7330, high concentration screen) of 98% and a remaining activity at 1.25 µM ([2]; Well no.=7330, low concentration screen) of 98.9%.

`NC12CC3CC(CC(C3)C1)C2` [Amantadine.HCl] showed a remaining activity at 3.75 µM ([1]; Well no.=1653, high concentration screen) of 97.4% and a remaining activity at 1.25 µM ([2]; Well no.=1653, low concentration screen) of 97.9%.

With `CCCCCCCCCCCCC(=O)N1CCCCC1CNC(=O)[C@@H](N)CCCCN` (some centres unmarked) [NPC-15437 dihydrochloride] the remaining activity at 3.75 µM ([1]; Well no.=1132, high concentration screen) was 95.6% and the remaining activity at 1.25 µM ([2]; Well no.=1132, low concentration screen) was 94%.

Reference: publication PMC8286840, “Identifying SARS-CoV-2 antiviral compounds by screening for small molecule inhibitors of Nsp3 papain-like protease” (Biochemical Journal, 2021)
